“Also recorded” adds a separate entry of the source.
Tests used:
[1] = tested on: experimental autoimmune encephalomyelitis (EAE) model; assay: EAE clinical score in PLP-induced EAE mice; format: in vivo, SJL/J female mice; details: for clinical score severity and clinical features (therapeutic effect in EAE mice model): regimen not specified
Protocol: The basic experimental approaches to test the efficacy of the compounds in the EAE model were done using the methodologies developed in our laboratory. EAE disease was induced in 4-6 weeks SJL female mice using 200 μg PLP peptide emulsified in complete Freund's adjuvant (CFA) containing 1 mg heat-killed Mycobacterium tuberculosis, injected at four sites in the right and left flanks. Following each injection, 200 ng of Bordetella pertussis toxin PTX) was injected intraperitoneal (IP) on days 0 and 2 post PLP immunization. The mice were divided into several groups: 1. prevention, where they were treated with 50 μg/mouse of SIMR1281 or SIMR1707 starting 15 days before the induction of EAE and continued […]. 2. Prophylactic, mice were treated with 50 μg/moues of SIMR1281 or SIMR1707 starting from day of EAE induction and continued every three days until termination (usually between 40-45 days). 3. Therapeutic, where mice were treated with 50 μg of SIMR1281 or SIMR1707 from the days of disease development (usually between 8-10 post EAE induction), and continued every three days until termination. The procedure for these regimens is shown below: • A. Prophylactic regimen: Mice were injected IP with 50 μg/mouse every 3 days since the initiation of the disease and until termination.
[drawing 3] • B. Therapeutic regimen: Mice were injected IP with 50 μg/mouse every 3 days at the appearance of symptoms (usually […]) days after initiation of the disease and until termination.
[drawing 4] • C. Prevention: The mice were injected IP with 50 μg/mouse of SIMR 1707 or 1281 at days −15, −10, −5, and 0. EAE was induced at day 0.
(§1) Untreated mice or mice injected with DMSO as a vehicle were used. For positive group, the results regarding the effects of RTX were used. During the course of the EAE disease, the animals were independently observed and monitored daily, and the EAE clinical score was recorded according to the following scoring scheme: 0=no clinical disease, 1=tail flaccidity, 2=hind limb weakness, 3=hind limb paralysis, 4=forelimb paralysis, and 5=moribund or death. The body weight changes were also monitored for all the mice groups. After the termination of the experiment, the mice were sacrificed, and their brains were collected for histological and immunohistochemistry analysis.

[2] = Body weight of EAE mice during treatment; format: in vivo; details: prophylactic, therapeutic or prevention regimen, measured every day up to 45 days (FIG. 5)
Protocol: as §1
(§2) FIG. 5 illustrates the weights of mice measured every day through the course of the experiments, i.e. up to 45 days after the initiation of the disease. FIGS. 5A, 5B and 5C, show the weights of mice after prophylactic, therapeutic or prevention regimen, respectively. Significant values shown in the right panels compared the mice body weights among the various groups. To corroborate the results of clinical scores with histological evaluation, we performed immunohistochemistry analysis to evaluate the effects of the two drugs on the inflammation taking place in the brain. First, we stained the brain cerebellum of these mice with H&E to evaluate the degree of inflammation.

[3] = tested on: perivascular inflammatory infiltrates in cerebellum; assay: H&E staining of brain cerebellum (degree of inflammation); format: in vivo, SJL/J female mice; details: 50 μg/mouse IP (FIG. 6)
Protocol: as §1, §2

[4] = tested on: CD3^+ T lymphocyte infiltration into the cerebellum; assay: Anti-CD3 staining of cerebellum; format: in vivo, SJL/J female mice; details: 50 μg/mouse IP (FIG. 7)
Protocol: as §1
FIG. 6 illustrates H&E staining of mice cerebellum (rectangles) showing highly inflamed lesions in EAE untreated and vehicle treated mice (arrows). […] Further, infiltration of CD3 cells into the mice cerebellum stained with anti-CD3 was performed.

[5] = tested on: GFAP; assay: GFAP staining of cerebellum (glial cell activation, gliosis); format: in vivo, SJL/J female mice; details: 50 μg/mouse IP (FIG. 8)
Protocol: as §1
FIG. 7 illustrates infiltration of CD3^+ lymphocytes into the cerebellum of mice brains (rectangles or squares). […] To further investigate the effects of the drugs on brain inflammation, we examined the activation of glial cells by staining with GFAP which determines the degree of gliosis.

[6] = tested on: demyelination in the cerebellum; assay: Luxol fast blue staining of cerebellum (demyelination / re-myelination); format: in vivo, SJL/J female mice; details: 50 μg/mouse IP (FIG. 9)
Protocol: as §1
FIG. 8 illustrates mouse brain cerebellum (rectangles or squares) was stained with GFAP to determine the degree of glial cell activation. […] Finally, we stained the mice brain cerebellum with Luxol fast blue to determine the degree of re-myelination after treatment with the two drugs.

[7] = prevention regimen, 50 μg/mouse IP on days −15, −10, −5 and 0, EAE induced at day 0, vs vehicle or untreated (FIG. 3C)
[8] = prophylactic regimen, 50 μg/mouse IP every 3 days from EAE induction until termination, vs vehicle or untreated (FIG. 3A)
[9] = therapeutic regimen, 50 μg/mouse IP every 3 days from appearance of symptoms until termination, vs vehicle or untreated (FIG. 3B)

| Compound | clinical score severity and clinical features (therapeutic effect in EAE mice model) [1] | EAE clinical scores [1, 7] | EAE clinical scores [1, 8] | EAE clinical scores [1, 9] | body weight [2] | inflammation, perivascular inflammatory infiltrates (H&E) ([3]; prevention regimen) | inflammation, perivascular inflammatory infiltrates (H&E) ([3]; prophylactic regimen) | inflammation, perivascular inflammatory infiltrates (H&E) ([3]; therapeutic regimen) | CD3^+ T lymphocyte infiltration ([4]; prevention regimen) | CD3^+ T lymphocyte infiltration ([4]; prophylactic regimen) | CD3^+ T lymphocyte infiltration ([4]; therapeutic regimen) | GFAP expression / gliosis ([5]; prevention regimen) | GFAP expression / gliosis ([5]; prophylactic regimen) | GFAP expression / gliosis ([5]; therapeutic regimen) | demyelination / re-myelination (Luxol fast blue) ([6]; prevention regimen) | demyelination / re-myelination (Luxol fast blue) ([6]; prophylactic regimen) | demyelination / re-myelination (Luxol fast blue) ([6]; therapeutic regimen) | EAE clinical scores ([1]; RTX as prophylactic drug, IP from day 0 every three days until termination (FIG. 4A)) | EAE clinical scores ([1]; RTX as therapeutic drug, 5 μg/mouse IP from first sign of disease every three days until termination (FIG. 4B)) | EAE clinical scores ([1]; RTX prevention regimen, IP on days −15, −10, −5 and 0, particularly at high concentration, 20 μg/mouse (FIG. 4C)) |
| --- | --- | --- | --- | --- | --- | --- | --- | --- | --- | --- | --- | --- | --- | --- | --- | --- | --- | --- | --- | --- |
| CC1(C)[C@H]2COc3ccc4ccccc4c3[C@H]2N=C2SC(c3ccccc3)=C(c3ccccc3)N21 [SIMR-1281, (8aS,14aS)-9,9-dimethyl-11,12-diphenyl-8a,14a-dihydro-8H,9H-benzo[5,6]chromeno[4,3-d]thiazolo[3,2-a]pyrimidine] | significant reduction | significant decrease | significant decrease | significant decrease | significantly increased the weights | no evidence of any perivascular inflammatory infiltrates; also recorded: no inflammation | no evidence of any perivascular inflammatory infiltrates; also recorded: no inflammation | no evidence of any perivascular inflammatory infiltrates; also recorded: no inflammation | no evidence of CD3^+ T lymphocyte infiltration; also recorded: no CD3^+ T cell accumulation | no evidence of CD3^+ T lymphocyte infiltration; also recorded: no CD3^+ T cell accumulation | no evidence of CD3^+ T lymphocyte infiltration; also recorded: no CD3^+ T cell accumulation | significant reduction; also recorded: so robust in preventing gliosis | significant reduction; also recorded: so robust in preventing gliosis | significant reduction; also recorded: so robust in preventing gliosis | no evidence of demyelination | no evidence of demyelination | no evidence of demyelination |  |  |  |
| C[C@]12CCC(=O)C[C@H]1N1CCc3c([nH]c4ccccc34)[C@@H]1CO2 [SIMR-1707] | significant reduction | not when used in the prevention regimen | effective | effective | significantly increased the weights | minimal evidence of perivascular inflammatory infiltrates; also recorded: less inflammation | minimal evidence of perivascular inflammatory infiltrates; also recorded: less inflammation | no evidence of perivascular inflammatory infiltrates; also recorded: completely disappeared | less infiltration of CD3^+ T cells | partially reduce; also recorded: less infiltration of CD3^+ T cells | no evidence of any CD3^+ T lymphocyte infiltration; also recorded: completely disappeared | only partial reduction; also recorded: Less gliosis | significant reduction; also recorded: no obvious glial cells activation | significant reduction; also recorded: no obvious glial cells activation | partial improvement in re-myelination; also recorded: partial improvement in demyelination | partial improvement in re-myelination; also recorded: partial improvement in demyelination | significant reduction in the demyelination areas |  |  |  |
| Rituximab [RTX, reference compound] |  |  |  |  |  |  |  |  |  |  |  |  |  |  |  |  |  | did not exert significant differences | did not exert significant differences | only worked in the prevention regimen |

From patent publication US12534478B2, “Prevention, prophylactic and therapeutic treatment of autoimmune diseases including multiple sclerosis using novel small molecules and compositions thereof” (University of Sharjah, priority 2020, dated 2026)
